According to patent publication US6071747A, “Immortalized cell lines from human adipose tissue, process for preparing same and applications thereof” (Centre National de la Recherche Scientifique-CNRS, priority 1995, dated 2000):
Like-named read-outs stand apart in the source and are kept apart here. Blank lines part the entries; values can stand above or below the compound they belong to.

How the values were obtained:
[1] = system: differentiated PAZ-6 human adipocytes; experiment: Lipolysis assay (glycerol release) on the PAZ-6 line; format: cell-based; details: differentiated PAZ-6 adipocytes; 2 hours at 37° C.; forskolin 10^-4 M, other agonists 10^-5 M; catecholamines with or without phentolamine 20 μg/ml
Description: The lipolysis test consists in measuring the amount of glycerol generated by the mature adipocytes treated with lipolytic ligands.
Monolayers of (differentiated) mature adipocytes in culture plates (6 wells) are washed and preincubated overnight in DMEM/Ham's F12 (1:1, v/v) comprising 1% of fatty acid-free BSA. The cells are then incubated in a Krebs-Ringer phosphate buffer (pH 7.4) comprising 2% of fatty acid-free BSA, 4.5 g/l of glucose, 50 μg/ml of Na2 S2 O5 and the β-adrenergic ligands, in a volume of 500 μl, for 2 hours at 37° C.
The glycerol level is measured on 100 μl of incubation medium by following the reduction of NAD to NADH at 340 nm in the presence of 10 μg/ml of glycerol dehydrogenase (derived from Enterobacter aerogenes, Boehringer Mannheim) in the following reaction buffer: K2 CO3 /NaHCO3 125 mM pH 10, NAD 3.5 mM and (NH4)2 SO4 330 mM.

[2] = molecular target: β-adrenergic receptors coupled with adenylyl cyclase in PAZ-6 cells (Homo sapiens, UniProt P13945); details: differentiated PAZ-6; 15 min
Description: (§1) The following method is used to determine the intracellular levels of cAMP:
(§2) The incubation buffer is removed and the cells are lyzed in 1 M NaOH for at least 20 min at 37° C. The lyzate is neutralized with 1 M acetic acid and centrifuged in a microcentrifuge at maximum speed for 5 min.
(§3) The supernatant is used to determine the cAMP (cAMP-^3 H kit, Amersham).

[3] = system: β-adrenergic receptors coupled with adenylyl cyclase in PAZ-6 cells; details: for Accumulation of cAMP, pmol cAMP/mg protein: agonist 15 min at 37° C.
Description: as §1, §2, §3

[4] = system: mRNA coding for the Ob protein; details: rat adipocytes; cited from earlier work
[5] = system: β-adrenergic receptors (I-CYP binding sites) of PAZ-6 cells
Description: * determination of the binding sites for the β antagonist ligand iodocyanopindolol (I-CYP) in the PAZ-6 cell line
The cells are washed with PBS, incubated for 5 minutes at 37° C. with a solution of trypsin/2% EDTA and resuspended in DMEM supplemented with 10% (v/v) of horse serum.
After centrifugation at 450×g for 5 minutes at 4° C., the cellular residue is washed twice with PBS and the cells are then resuspended in PBS.
The actual binding assay itself is carried out for 90 min at 25° C. in a final volume of […] of PBS supplemented with 50 mg/ml of bovine serum albumin and 1 mM desipramine.
The reaction is stopped by rapid filtration through a Whatman GF/C glass fibre filter previously immersed for 30 min in a solution of PBS containing 0.3% of polyethyleneimine (to reduce the non-specific bindings).
The protein concentrations are determined by the method of M. Bradford (Anal. Biochem., 1976, 72, 248-256).
Bovine serum albumin is used as the standard and the cellular suspensions are homogenized with a Polytron homogenizer for a maximum of 5 seconds before the reaction.

PAZ-6 preadipocytes = experiment: Differentiation of PAZ-6 preadipocytes into mature adipocytes; format: cell-based, human; details: in the presence of insulin and dexamethasone; 1 μM pioglitazone
Description: The cells are inoculated at a density of 10,000 cells/cm^2 and cultivated for 3 days in a medium containing 6% of foetal calf serum in order to obtain confluence; an ITT medium (DMEM/HAM F12 medium supplemented with biotin, pantothenate, Hepes, T3, penicillin and streptomycin, as defined above) is then added to said cells, said medium also containing 0.1 μM dexamethasone, 850 nM insulin, 1 μM pioglitazone and 0.25 mM IBMX (3-isobutyl-1-methylxanthine) for 4 days.

Ob mice = Ob mice with mutant gene; injected; cited from earlier work

β-adrenergic receptors coupled with adenylyl cyclase in PAZ-6 cells (Homo sapiens, UniProt P13945), sequence (P13945 whole entry): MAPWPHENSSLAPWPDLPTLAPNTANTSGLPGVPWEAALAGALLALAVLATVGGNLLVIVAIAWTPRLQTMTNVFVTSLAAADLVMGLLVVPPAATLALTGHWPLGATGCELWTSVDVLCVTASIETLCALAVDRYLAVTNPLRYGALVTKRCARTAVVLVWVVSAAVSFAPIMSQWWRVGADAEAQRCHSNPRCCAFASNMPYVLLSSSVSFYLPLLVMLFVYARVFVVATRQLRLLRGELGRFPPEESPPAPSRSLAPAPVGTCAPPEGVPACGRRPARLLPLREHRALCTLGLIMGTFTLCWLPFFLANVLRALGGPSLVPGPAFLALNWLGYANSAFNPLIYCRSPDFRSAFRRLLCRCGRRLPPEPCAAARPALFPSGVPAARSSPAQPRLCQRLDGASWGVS

Compound: CC(C)(C)NCC(O)COc1cccc2[nH]c(=O)[nH]c12 (stereo not shown) [CGP 12177A]
- lipolysis (glycerol generated relative to basal level, FIG. 4) [1]: Lipolysis is also seen to be induced
- stimulation (cAMP) compared with isoproterenol activating all β-AR sites [2]: 20%
- Accumulation of cAMP, pmol cAMP/mg protein ([3]; PAZ-6 differentiated): 323 ± 129 pmol cAMP/mg protein
- Accumulation of cAMP, pmol cAMP/mg protein ([3]; PAZ-6 not differentiated): 254 ± 167 pmol cAMP/mg protein
- stimulation of the adenylyl cyclase ([3]; undifferentiated PAZ-6): does not cause any significant stimulation

Compound: C[C@H](Cc1ccc2c(c1)OC(C(=O)O)(C(=O)O)O2)NC[C@H](O)c1cccc(Cl)c1 [CL 316,43]
- lipolysis (glycerol generated relative to basal level, FIG. 4) [1]: Lipolysis is also seen to be induced
- levels of mRNA coding for the Ob protein [4]: reduce substantially

- reduction of the number of I-CYP binding sites [5]: 34%
Compound: Cc1ccc(OCC(O)C(C)NC(C)C)c2c1CCC2 (stereo not shown) [ICI 118551]

Compound: O=C(O)COc1ccc(OCCNCC(O)COc2ccccc2)cc1 (stereo not shown) [ICI 201651]
- lipolysis (glycerol generated relative to basal level, FIG. 4) [1]: Lipolysis is also seen to be induced

Compound: CNC[C@H](O)c1ccc(O)c(O)c1 [epinephrine]
- lipolysis (glycerol generated relative to basal level, FIG. 4) [1]: lipolysis induced

Compound: C=C[C@@]1(C)CC(=O)[C@]2(O)[C@@]3(C)[C@@H](O)CCC(C)(C)[C@@H]3[C@H](O)[C@H](OC(C)=O)[C@@]2(C)O1 [forskolin]
- lipolysis (glycerol generated relative to basal level, FIG. 4) [1]: lipolysis induced

Compound: CC(C)NCC(O)c1ccc(O)c(O)c1 (stereo not shown) [isoproterenol, isoprenaline]
- Accumulation of cAMP, pmol cAMP/mg protein ([3]; PAZ-6 differentiated): 2083 pmol cAMP/mg protein
- Accumulation of cAMP, pmol cAMP/mg protein ([3]; PAZ-6 not differentiated): 4344 pmol cAMP/mg protein

Compound: NC[C@H](O)c1ccc(O)c(O)c1 [norepinephrine]
- lipolysis (glycerol generated relative to basal level, FIG. 4) [1]: lipolysis induced

Compound: CCc1ccc(CCOc2ccc(CC3SC(=O)NC3=O)cc2)nc1 (stereo not shown) [pioglitazone]
- differentiation into mature adipocytes (PAZ-6 preadipocytes): significantly increased

Compound: leptin: leptin (Ob protein), product of the Ob gene
- appetite and obesity (Ob mice): reduces appetite and hence obesity
